Data published in article PMC5918145, “Quantification of amino acids and peptides in an ionic liquid based aqueous two-phase system by LC–MS analysis” (AMB Express, 2018).
“Also recorded” adds a separate entry of the source. Like-named read-outs stand apart in the source and are kept apart here. Marks after values point to notes of the source that are not given here. Where a SMILES comes first, the peptide text is derived from it.

Assays:
[1] = Distribution ratio (logD) in ionic liquid-based aqueous two-phase system (Ammoeng 110/K2HPO4); settings: Ammoeng 110 (0.60–0.65 g, filled to 4 g) / K2HPO4-KH2PO4 buffer, vortex 45 s, 5 min phase separation, LC–MS after EZ:faast SPE and derivatization (peptides after 6 M HCl hydrolysis, 20 h, 110 °C), duplicates, numbers only plotted (Fig. 2, Fig. 3)
[2] = parameters: method as in 2 sources, ref Hardy (1985) ||| ref Jakubke and Jeschkeit (1982); settings: isoelectric point of free amino acid, cited from earlier work
[3] = parameters: method as in Kyte and Dolittle (1982); settings: hydropathy scale; ref Kyte and Dolittle (1982); cited from earlier work

SMILES	Distribution in IL-ATPS (logD, D = c upper phase / c lower phase), in words ([1]; pH 6.0)	Distribution in IL-ATPS (logD, D = c upper phase / c lower phase), in words ([1]; pH 7.0)	pI ([2]; ref Hardy (1985))	pI ([2]; ref Jakubke and Jeschkeit (1982))	Hydrophobicity of the side chain [3]
C[C@H](N)C(=O)N[C@@H](C)C(=O)N[C@@H](CC(=O)O)C(=O)N[C@@H](C)C(=O)N[C@@H](C)C(=O)O [AADAA]	concentrated in the ionic liquid-containing upper phase	concentrated in the ionic liquid-containing upper phase	–	–	–
C[C@H](N)C(=O)N[C@@H](C)C(=O)N[C@@H](Cc1ccccc1)C(=O)N[C@@H](C)C(=O)N[C@@H](C)C(=O)O [AAFAA] (H-AAFAA-OH)	concentrated in the ionic liquid-containing upper phase	concentrated in the ionic liquid-containing upper phase	–	–	–
C[C@H](N)C(=O)N[C@@H](C)C(=O)NCC(=O)N[C@@H](C)C(=O)N[C@@H](C)C(=O)O [AAGAA] (H-AAGAA-OH)	almost equally distributed between the two phases	almost equally distributed between the two phases; also recorded: slightly more concentrated in the ionic liquid rich upper phase	–	–	–
C[C@H](N)C(=O)N[C@@H](C)C(=O)N[C@@H](Cc1c[nH]cn1)C(=O)N[C@@H](C)C(=O)N[C@@H](C)C(=O)O [AAHAA]	enriched in the upper phase	accumulation of AAHAA in the upper phase was also detected, but not as strong as at pH 6.0	–	–	–
CC(C)C[C@H](NC(=O)[C@H](C)NC(=O)[C@H](C)N)C(=O)N[C@@H](C)C(=O)N[C@@H](C)C(=O)O [AALAA] (H-AALAA-OH)	almost equally distributed between the two phases	almost equally distributed between the two phases; also recorded: slightly more concentrated in the ionic liquid rich upper phase	–	–	–
C[C@H](N)C(=O)N[C@@H](C)C(=O)N[C@@H](CO)C(=O)N[C@@H](C)C(=O)N[C@@H](C)C(=O)O [AASAA] (H-AASAA-OH)	concentrated in the ionic liquid-containing upper phase	concentrated in the ionic liquid-containing upper phase	–	–	–
N[C@@H](CCC(=O)O)C(=O)O [Glutamic acid]	strongly enriched in the ionic liquids-containing upper phase	strongly enriched in the ionic liquids-containing upper phase	3.24^a	–	–
NCC(=O)O [Glycine]	distributed equally between the ionic liquid-rich upper and the phosphate-rich lower phase	distributed more into the ionic liquid-rich upper phase	5.97^a	–	–
N[C@@H](Cc1c[nH]cn1)C(=O)O [Histidine]	strongly enriched in the ionic liquids-containing upper phase	strongly enriched in the ionic liquids-containing upper phase	7.59^a	–	–
CC(C)C[C@H](N)C(=O)O [Leucine]	distributed equally between the ionic liquid-rich upper and the phosphate-rich lower phase	marginally higher concentrated in the phosphate buffer-rich lower phase	–	–	–
N[C@@H](Cc1ccccc1)C(=O)O [Phenylalanine]	strongly enriched in the ionic liquids-containing upper phase	strongly enriched in the ionic liquids-containing upper phase	–	5.48^b	2.8^c
N[C@@H](CO)C(=O)O [Serine]	distributed equally between the ionic liquid-rich upper and the phosphate-rich lower phase	distributed more into the ionic liquid-rich upper phase	5.68^a	–	–
